The source of these data is patent US20060194837A1, “Tetrahydroisoquinoline compounds” (priority 2004, published 2006).

The structures appear in SMILES notation. Where two headings read alike, the source gives them in different places.

For test [1], the target named is T1, human H3 receptor (Homo sapiens, UniProt Q9Y5N1).
T1 construct: expressed in transfected cells
Briefly: H3 receptor binding (N-[3H]-α-methylhistamine displacement). As to conditions: membranes of SK-N-MC cells expressing cloned human H3 receptor, 0.8 nM N-[3H]-α-methylhistamine, 60 min at 25° C.

In a further test the target is T2, Rat SERT (Rattus norvegicus, UniProt P31652).
T2 construct: A rat brain without cerebellum (Zivic Laboratories, Inc.—Pittsburgh, Pa.) was homogenized; tissue Zivic Laboratories, Inc; host or cells: rat brain without cerebellum, membranes
Briefly: Rat brain SERT binding ([3H]-citalopram displacement). As to conditions: rat brain membranes without cerebellum, 0.6 nM [3H]-citalopram, 60 min at 25° C. Here is the method:
The supernatant was removed and re-centrifuged at 15,000 rpm for 30 min. […] Membranes were incubated with 0.6 nM [^3H]-Citalopram plus/minus test compounds for 60 min at 25° C. and harvested by rapid filtration over GF/C glass fiber filters (pretreated with 0.3% polyethylenimine) followed by four washes with ice-cold buffer.

A further test deals with T3, human SERT (Homo sapiens, UniProt P31645).
T3 construct: expressed in transfected cells; host or cells: HEK293 membranes
Briefly: Human SERT binding (3H-citalopram displacement). As to conditions: HEK293 membranes expressing human SERT, rt 1 h. The procedure: Homogenized HEK293 (Human Embryonic Kidney) membranes expressing the human SERT were incubated with ^3H-citalopram (SERT) at rt for 1 h in 50 mM Tris, 120 mM NaCl, 5 mM KCl (pH 7.4). […] The membranes were washed and the radioactivity was counted as above.

In test [2] the target is T1, human H3 receptor. Briefly: Cyclic AMP accumulation (β-galactosidase reporter, Schild analysis). Format: cell-based. As to conditions: histamine agonist, forskolin 5 μM, Schild regression of pEC50 values. Here is the method: Sublines of SK-N-MC cells were created that expressed a reporter construct and the human H3 receptor. The reporter gene (β-galactosidase) is under the control of multiple cyclic AMP responsive elements. In 96-well plates, histamine was added directly to the cell media followed 5 min later by an addition of forskolin (5 μM final concentration). When appropriate, antagonists were added 10 min prior to agonist addition. After a 6-h incubation at 37° C., the media was aspirated and the cells washed with 200 μL of phosphate-buffered saline followed by a second aspiration. Cells were lysed with 25 μL 0.1× assay buffer (10 mM Na-phosphate, pH 8, 0.2 mM MgSO4, 0.01 mM MnCl2) and incubated at rt for 10 min. […] Color was developed using 25 μL of 1 mg/mL substrate solution (chlorophenolred β-D galactopyranoside; Roche Molecular Biochemicals, Indianapolis, In.).

Setting [3] is: pA2, SK-N-MC cells expressing human H3 receptor and CRE-β-galactosidase reporter.
The mark [4] stands for this setting: SK-N-MC cells expressing human H3 receptor and CRE-β-galactosidase reporter, read-out: pA2 (converted).

T3 sequence (P31645 whole entry): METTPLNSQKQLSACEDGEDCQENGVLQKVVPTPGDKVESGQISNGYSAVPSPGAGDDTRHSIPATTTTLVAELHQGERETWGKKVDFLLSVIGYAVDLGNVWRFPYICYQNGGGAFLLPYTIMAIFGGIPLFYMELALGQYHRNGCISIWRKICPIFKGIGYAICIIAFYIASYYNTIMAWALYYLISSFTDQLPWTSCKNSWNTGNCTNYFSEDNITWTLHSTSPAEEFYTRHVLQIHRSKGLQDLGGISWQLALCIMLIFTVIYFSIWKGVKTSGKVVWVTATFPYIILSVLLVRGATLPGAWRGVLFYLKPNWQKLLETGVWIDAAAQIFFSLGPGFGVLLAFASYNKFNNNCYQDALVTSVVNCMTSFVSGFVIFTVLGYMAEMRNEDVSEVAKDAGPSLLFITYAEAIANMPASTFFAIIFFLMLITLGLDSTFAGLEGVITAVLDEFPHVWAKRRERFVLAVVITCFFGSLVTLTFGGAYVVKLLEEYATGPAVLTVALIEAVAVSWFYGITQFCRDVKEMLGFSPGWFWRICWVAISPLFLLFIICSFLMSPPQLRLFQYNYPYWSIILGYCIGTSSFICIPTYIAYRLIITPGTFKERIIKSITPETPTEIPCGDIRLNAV
T1 sequence (Q9Y5N1 whole entry): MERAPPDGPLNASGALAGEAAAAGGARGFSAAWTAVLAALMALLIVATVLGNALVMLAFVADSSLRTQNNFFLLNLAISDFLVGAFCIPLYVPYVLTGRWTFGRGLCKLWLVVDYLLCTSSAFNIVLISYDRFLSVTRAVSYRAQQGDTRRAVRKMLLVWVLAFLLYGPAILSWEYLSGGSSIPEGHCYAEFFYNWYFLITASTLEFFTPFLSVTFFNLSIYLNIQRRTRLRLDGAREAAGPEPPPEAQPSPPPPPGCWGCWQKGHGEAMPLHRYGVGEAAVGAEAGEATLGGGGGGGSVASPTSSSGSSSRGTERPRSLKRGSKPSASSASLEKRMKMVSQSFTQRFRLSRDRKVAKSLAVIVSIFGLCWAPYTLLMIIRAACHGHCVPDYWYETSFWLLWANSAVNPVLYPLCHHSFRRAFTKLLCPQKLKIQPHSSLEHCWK
T2 sequence (P31652 whole entry): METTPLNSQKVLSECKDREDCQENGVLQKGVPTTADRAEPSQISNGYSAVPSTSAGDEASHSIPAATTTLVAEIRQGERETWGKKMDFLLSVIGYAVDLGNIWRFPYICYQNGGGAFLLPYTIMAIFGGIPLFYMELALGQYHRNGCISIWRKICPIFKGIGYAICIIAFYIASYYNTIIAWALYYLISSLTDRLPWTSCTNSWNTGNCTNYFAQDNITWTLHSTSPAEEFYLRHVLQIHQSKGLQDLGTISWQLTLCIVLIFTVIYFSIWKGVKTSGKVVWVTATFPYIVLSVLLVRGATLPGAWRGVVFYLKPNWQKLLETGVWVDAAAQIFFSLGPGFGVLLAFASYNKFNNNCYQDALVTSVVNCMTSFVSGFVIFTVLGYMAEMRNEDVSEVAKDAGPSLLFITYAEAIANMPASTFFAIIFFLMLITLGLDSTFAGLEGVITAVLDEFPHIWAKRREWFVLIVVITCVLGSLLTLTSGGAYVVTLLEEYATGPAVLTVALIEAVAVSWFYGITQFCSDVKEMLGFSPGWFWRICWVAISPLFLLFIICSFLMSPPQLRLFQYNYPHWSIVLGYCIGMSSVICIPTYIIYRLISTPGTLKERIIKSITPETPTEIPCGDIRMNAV

As for `CN1Cc2cc(OCCCN3CCC(F)CC3)ccc2C(c2ccc(OC(F)F)cc2)C1` (centres unmarked) [Example 50, 4-(4-Difluoromethoxy-phenyl)-7-[3-(4-fluoro-piperidin-1-yl)-propoxy]-2-methyl-1,2,3,4-tetrahydro-isoquinoline], the inhibitory constant (Ki) at human H3 receptor [1] is 8 nM; at Rat SERT (read-out: Rat SERT Ki) it was 3 nM; at human SERT, 3 nM. The compound also gave a Kb on human H3 receptor [2] (setting [3]) of 3.98 nM.

As to `CN1Cc2cc(OCCCN3CCCCC3)ccc2C(c2ccsc2)C1` (centres unmarked) [Example 57, 2-Methyl-7-(3-piperidin-1-yl-propoxy)-4-thiophen-3-yl-1,2,3,4-tetrahydro-isoquinoline], the Ki on human H3 receptor [1] is 0.9 nM; at Rat SERT (read-out: Rat SERT Ki), 22 nM; on human SERT it was 53 nM. Besides, at human H3 receptor [2] (setting [4]), the Kb is 0.1 nM.

With `CN1Cc2cc(OCCCN3CCCCC3)ccc2C(c2cccnc2)C1` (centres unmarked) [Example 59, 2-Methyl-7-(3-piperidin-1-yl-propoxy)-4-pyridin-3-yl-1,2,3,4-tetrahydro-isoquinoline], the inhibition constant (Ki) on human H3 receptor [1] worked out at 1 nM; on Rat SERT (read-out: Rat SERT Ki), 48 nM; on human SERT it was 160 nM. For the same compound, the Kb on human H3 receptor [2] (setting [4]) is 0.126 nM.

With `CN1Cc2cc(OCCCN3CCCCC3)ccc2C(c2ccc(C(F)(F)F)cc2)C1` (centres unmarked) [Example 60], the Ki on human H3 receptor [1] turned out to be 2 nM; on Rat SERT (read-out: Rat SERT Ki) it was 14 nM; at human SERT, 7 nM. Also, on human H3 receptor [2] (setting [4]), the Kb is 2.51 nM.

For the compound `COc1ccc(C2CN(CCO)Cc3cc(OCCCN4CCCCC4)ccc32)cc1` (centres unmarked) [Example 71, 2-[4-(4-Methoxy-phenyl)-7-(3-piperidin-1-yl-propoxy)-3,4-dihydro-1H-isoquinolin-2-yl]-ethanol], the Ki on human H3 receptor [1] came to 1 nM; on Rat SERT (read-out: Rat SERT Ki) it was 16 nM; on human SERT it was 31 nM. Also, at human H3 receptor [2] (setting [4]), the Kb is 0.251 nM.

Regarding `COc1ccc(C2CN(CCF)Cc3cc(OCCCN4CCCCC4)ccc32)cc1` (centres unmarked) [Example 72, 2-(2-Fluoro-ethyl)-4-(4-methoxy-phenyl)-7-(3-piperidin-1-yl-propoxy)-1,2,3,4-tetrahydro-isoquinoline], the Ki on human H3 receptor [1] turned out to be 1 nM; on Rat SERT (read-out: Rat SERT Ki) it was 15 nM; at human SERT, 29 nM. The Kb at human H3 receptor [2] (setting [3]) was 0.794 nM.

In the case of `CN1Cc2cc(OCCCN3CCCCC3)ccc2C(c2ccc(Cl)c(Cl)c2)C1` (centres unmarked) [Example 76, 4-(3,4-Dichloro-phenyl)-2-methyl-7-(3-piperidin-1-yl-propoxy)-1,2,3,4-tetrahydro-isoquinoline], the Ki came out at 5 nM at human H3 receptor [1], 11 nM at Rat SERT (Rat SERT Ki (nM)) and 9 nM on human SERT. Further, the Kb at human H3 receptor [2] (setting [3]) is 3.98 nM.

With `CN1Cc2cc(OCCCN3CCOCC3)ccc2C(c2ccc(Cl)c(Cl)c2)C1` (centres unmarked) [Example 77, 4-(3,4-Dichloro-phenyl)-2-methyl-7-(3-morpholin-4-yl-propoxy)-1,2,3,4-tetrahydro-isoquinoline], the Ki at human H3 receptor [1] was determined as 3 nM; on Rat SERT (read-out: Rat SERT Ki), 27 nM; on human SERT, 28 nM. On human H3 receptor [2] (setting [3]), this compound gave a Kb of 20 nM.

In the case of `COc1ccc(C2CN(C)Cc3cc(OCC4CCN(C(C)C)CC4)ccc32)cc1` (centres unmarked) [Example 83, 7-(1-Isopropyl-piperidin-4-ylmethoxy)-4-(4-methoxy-phenyl)-2-methyl-1,2,3,4-tetrahydro-isoquinoline], the Ki is 3 nM at human H3 receptor [1], 6 nM on Rat SERT (read-out: Rat SERT Ki) and 5 nM at human SERT. Also, at human H3 receptor [2] (setting [4]), the Kb was 1.26 nM.

For the compound `CCN1Cc2cc(OCCCN3CCC(F)CC3)ccc2C(c2ccc(OC)cc2)C1` (centres unmarked) [Example 146, 2-Ethyl-7-[3-(4-fluoro-piperidin-1-yl)-propoxy]-4-(4-methoxy-phenyl)-1,2,3,4-tetrahydro-isoquinoline], the Ki on human H3 receptor [1] turned out to be 3 nM; at Rat SERT (read-out: Rat SERT Ki) it was 12 nM; at human SERT, 12 nM. In addition, on human H3 receptor [2] (setting [4]), the Kb is 2 nM.

Consider `CN1Cc2cc(OCCCN3CCOCC3)ccc2C(c2ccc(OC(F)F)cc2)C1` (centres unmarked) [Example 214, 4-(4-Difluoromethoxy-phenyl)-2-methyl-7-(3-morpholin-4-yl-propoxy)-1,2,3,4-tetrahydro-isoquinoline], for which the values for the Ki at human H3 receptor [1], on Rat SERT (read-out: Rat SERT Ki) and at human SERT were 17 nM, 3 nM and 12 nM, respectively. For the same compound, on human H3 receptor [2] (setting [4]), the Kb is 6.31 nM.

Take `CSc1ccc(C2CN(C)Cc3cc(OCC4CN(C(C)C)C4)ccc32)cc1` (centres unmarked) [Example 236, 7-(1-Isopropyl-azetidin-3-ylmethoxy)-2-methyl-4-(4-methylsulfanyl-phenyl)-1,2,3,4-tetrahydro-isoquinoline]: the values for the Ki on human H3 receptor [1], at Rat SERT (read-out: Rat SERT Ki) and on human SERT were 10 nM, 6 nM and 9 nM, respectively. Further, the Kb on human H3 receptor [2] (setting [4]) was 7.94 nM.

As for `C(#Cc1ccc2c(c1)CNCC2c1cccnc1)CCN1CCCCC1` (centres unmarked) [Example 271, 7-(4-Piperidin-1-yl-but-1-ynyl)-4-pyridin-3-yl-1,2,3,4-tetrahydro-isoquinoline], the Ki came to 0.7 nM on human H3 receptor [1], 413 nM on Rat SERT (read-out: Rat SERT Ki) and 3000 nM on human SERT. Also, the Kb at human H3 receptor [2] (setting [4]) is 0.251 nM.

On to `c1cncc(C2CNCc3cc(CCCCN4CCCCC4)ccc32)c1` (centres unmarked) [Example 272, 7-(4-Piperidin-1-yl-butyl)-4-pyridin-3-yl-1,2,3,4-tetrahydro-isoquinoline], for which the Ki on human H3 receptor [1] is 3 nM; on Rat SERT (read-out: Rat SERT Ki) it was 540 nM; at human SERT it was 3000 nM. Also, the Kb on human H3 receptor [2] (setting [4]) is 3.16 nM.

Regarding `CN1Cc2cc(CCCCN3CCCCC3)ccc2C(c2cccnc2)C1` (centres unmarked) [Example 273, 2-Methyl-7-(4-piperidin-1-yl-butyl)-4-pyridin-3-yl-1,2,3,4-tetrahydro-isoquinoline], the Ki on human H3 receptor [1] turned out to be 5 nM; at Rat SERT (read-out: Rat SERT Ki) it was 47 nM; at human SERT, 158 nM. In addition, the Kb on human H3 receptor [2] (setting [4]) is 2 nM.

Take `COc1ccc(C2CN(C)Cc3cc(C#CCCN4CCCCC4)ccc32)cc1` (centres unmarked) [Example 275, 4-(4-Methoxy-phenyl)-2-methyl-7-(4-piperidin-1-yl-but-1-ynyl)-1,2,3,4-tetrahydro-isoquinoline]: the Ki on human H3 receptor [1] is 3 nM; at Rat SERT (read-out: Rat SERT Ki), 5 nM; at human SERT, 4 nM. For the same compound, at human H3 receptor [2] (setting [4]), the Kb was 1.26 nM.

Turning to `CN1Cc2cc(C#CCCN3CCCCC3)ccc2C(c2ccc(F)cc2)C1` (centres unmarked) [Example 279, 4-(4-Fluoro-phenyl)-2-methyl-7-(4-piperidin-1-yl-but-1-ynyl)-1,2,3,4-tetrahydro-isoquinoline], the Ki on human H3 receptor [1] is 6 nM; at Rat SERT (read-out: Rat SERT Ki) it was 90 nM; on human SERT it was 98 nM. On human H3 receptor [2] (setting [4]), the Kb was 3.16 nM.

What is called Ki is a dissociation constant, usually derived from enzyme kinetics or from competition with a known ligand.
